Test results: EP0334967B1, “KERATOSIS-TREATING AGENT” (priority 1987, dated 1989)
Read-outs that look alike come from different tables or passages of the source.

Experiments:
5-lipoxygenase = target: T1, 5-lipoxygenase (Rattus norvegicus, UniProt P12527); assay: 5-Lipoxygenase-inhibiting action (5-HETE formation, enzyme from RBL-1 cultured cells); assay type: biochemical; details: 5-lipoxygenase from RBL-1 cells, 10 µM arachidonic acid, 37°C 10 minutes; tested at 5, 1 or 0.5 µM
T1 construct: The supernatant was used as the standard enzyme of 5-lipoxygenase; endogenous in cells; host or cells: RBL-1 cultured cells, sonicated; 105,000 x G supernatant
T1 sequence (P12527 1-673): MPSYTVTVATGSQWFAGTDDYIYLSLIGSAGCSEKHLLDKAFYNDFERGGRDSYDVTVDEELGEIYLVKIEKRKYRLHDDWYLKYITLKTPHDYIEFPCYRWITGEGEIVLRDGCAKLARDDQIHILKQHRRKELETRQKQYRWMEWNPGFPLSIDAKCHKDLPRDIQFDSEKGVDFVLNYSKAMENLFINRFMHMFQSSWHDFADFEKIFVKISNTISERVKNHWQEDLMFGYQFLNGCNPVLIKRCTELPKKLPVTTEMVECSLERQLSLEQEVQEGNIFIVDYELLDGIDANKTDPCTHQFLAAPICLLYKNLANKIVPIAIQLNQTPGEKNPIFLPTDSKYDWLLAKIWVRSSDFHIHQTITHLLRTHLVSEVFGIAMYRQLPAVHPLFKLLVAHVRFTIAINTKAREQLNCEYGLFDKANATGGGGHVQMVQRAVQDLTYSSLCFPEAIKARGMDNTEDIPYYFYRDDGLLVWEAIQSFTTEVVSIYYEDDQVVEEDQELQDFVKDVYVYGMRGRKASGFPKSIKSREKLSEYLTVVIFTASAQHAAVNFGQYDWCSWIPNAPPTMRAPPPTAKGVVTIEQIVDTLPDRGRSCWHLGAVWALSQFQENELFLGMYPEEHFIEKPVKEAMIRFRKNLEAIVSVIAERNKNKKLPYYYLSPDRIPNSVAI
Experimental: RBL-1 cultured cells were suspended in a 50 mM phosphate buffer solution (pH 7.4) containing 1 mM EDTA and 10% ethylene glycol so that the cell concentration was 5 x 10⁶ per ml, and the cell suspension was subjected to an ultrasonic wave treatment. Then, centrifugal separation was carried out under 10,000 x G for 10 minutes and then under 105,000 x G for 60 minutes. The supernatant was used as the standard enzyme of 5-lipoxygenase.
A test tube was charged with a 50 mM phosphate buffer solution, 1.5 mM calcium chloride, 20 µM indomethacin, 18 mM glutathione, 6 mM ATP, 10 µM arachidonic acid, the obtained standard enzyme, and an ethanol solution of cis-(6)-shogaol, to a total volume of 0.6 ml and a final concentration of 5, 1 or 0.5 µM, and a reaction was carried out at 37°C for 10 minutes. […] The amount of 5-HETE in the liquid measured by the high-speed liquid chromatography [column = TSK-gel ODS-80TM (supplied by Toso), moving phase = acetonitrile/water/ acetic acid (60/40/0.02), flow rate = 1 ml/min, detection = ultraviolet ray (235 nm)], and the obtained value was designated as the enzyme activity. The inhibition ratio at each concentration was calculated by the following formula, and the concentration giving an inhibition ratio of 50% (hereinafter referred to as "IC₅₀") was determined. […]

cyclooxygenase = assay: Cyclooxygenase-inhibiting action (PGE2 formation, rabbit kidney marrow microsome fraction); assay type: biochemical; details: cyclooxygenase from rabbit kidney marrow microsomes, [1-14C] arachidonic acid, 37°C 15 minutes; tested at 40, 20, 10 or 5 µM
Experimental: To 7.0 g of rabbit kidney marrow was added 60 ml of a 0.1M phosphate buffer solution (pH 7.5) containing 1 mM glutathione, and the mixture was homogenized by using a polytrone. The homogenate was subjected to the centrifugal separation under. 105,000 x G for 60 minutes to obtain a microsome fraction, and the fraction was dissolved in 7 ml of a 0.1M phosphate buffer solution (pH 7.5) containing 1 mM glutathione to obtain a standard enzyme of cyclooxygenase.
To 15 µl of the obtained standard enzyme were added 4 mM glutathione, 10 mM tryptophan, 0.25 µM hemoglobin, and a phosphate buffer solution (pH 7.5), each concentration being the final concentration, and [1-¹⁴C] arachidonic acid (5 x 10⁴ dpm) and cis-(6)-shogaol were added to a final concentration of 40, 20, 10 or 5 µM and a total volume of 200 µl. Incubation was carried out at 37 °C for 15 minutes, and 1N hydrochloric acid was added to stop the reaction. Prostaglandin E₂ (PGE₂) was added as the carrier and the reaction product was extracted with 2 ml of ether. […] Coloration was effected with an iodine vapor, the portion corresponding of […] was scratched out, and the radioactivity of PGE₂ was measured by a liquid scintillation counter. The inhibition ratio at each concentration was calculated according to the following formula, and the 1C₅₀ was determined. […]

balb/c 3T3 cells = assay: Inhibitory action to EGF stimulated cell growth (3H-thymidine incorporation); assay type: cell-based; details: 16 hours + 8 hours 3H-thymidine
Experimental: A culture medium (hereinafter referred to as "CS DMEM") containing 10% of calf serum, which was prepared so that 2.5 x 10⁴ of fibroblasts (balb/c 3T3 cells) were contained in 0.5 ml, was added in a 24-well plate in an amount of 0.5 ml per well. After the fibroblasts were confluent in the state of a single layer, the culture medium was replaced with the same amount of 1% CS DMEM and the cells were incubated at 37°C for 12 hours in a humidified atmosphere of 95% air-5% CO₂. Then, 1 µg/25 µl/well of trans-(6)-shogaol and 5 ng/25 µl/well of EGF (supplied by Collaborative Research, Inc.) were added, and the cells were further incubated for 16 hours. Then, 0.5 µCi(1.85+10⁻¹⁶S⁻¹)/50 µl of ³H-thymidine was added and the cells were further incubated 8 hours. The culture medium was removed, and the cells were washed with a cold phosphate buffered saline. […] The radioactivity of ³H-thymidine included in the cells by this growth was measured, and the action of trans-(6)-shogaol to the growth of the cells was examined.
10% CS DMEM prepared so that 2.5 x 10⁴ of fibroblasts (balb/c 3T3 cells) were contained in 0.5 ml were added in a 24-well plate in an amount of 0.5 ml/well. […] The radioactivity of ³H-thymidine included in the cells by this growth was measured, and the function of cis-(6)-shogaol to the growth of the cells was examined.

[1] = test system: male mice of the ICR line; assay: Acute toxicity test; details: mouse, in vivo, po, 500 mg/kg
Experimental: (§1) The acute toxicity test of cis-(6)-shogaol was carried out by using male mice of the ICR line.

Acute toxicity test = assay: Acute toxicity test; set-up: species or system mice; details: mouse, in vivo
Experimental: as §1

Compound	IC50 (5-lipoxygenase)	IC50 (cyclooxygenase)	growth inhibited, balb/c 3T3 cells the growth of which was promoted by EGF (balb/c 3T3 cells; Experiment 4: 0.5 µg/12.5 µl/well compound, 50 pg/25 µl/well mouse EGF)	mortality [1]	growth inhibited, balb/c 3T3 cells the growth of which was promoted by EGF (balb/c 3T3 cells; Experiment 1: 1 µg/25 µl/well compound, 5 ng/25 µl/well EGF)	LD50 (Acute toxicity test; iv)	LD50 (Acute toxicity test; oral administration, Litchfield-Wilcoxon method, male ICR mice, read-out: LD50)
CCCCC/C=C\C(=O)CCc1ccc(O)c(OC)c1 [cis-(6)-shogaol]	0.83 µM	11.7 µM	63.9%	none of the mice died			
CCCCC/C=C/C(=O)CCc1ccc(O)c(OC)c1 [trans-(6)-shogaol, 1(4-hydroxy-3-methoxyphenyl)-(E)-4-decen-3-one]					52.7%	50.9 mg/kg	687 mg/kg
